Experimental data published in patent US6781033B2, “Method for the transformation of plant cell plastids” (Monsanto Technology LLC, priority 2000, dated 2004).

Assays:
[1] = test system: wild-type plant cell plastids of tobacco leaf tissue; test: Electron microscopic analysis of plastid ultrastructure in tobacco leaf tissue cultured on drug-containing medium; type: cell-based, Nicotiana tabacum cv Petit Havana
Experimental: (§1) Wild-type plants of Nicotiana tabacum cv Petit Havana were propagated in sterile hormone free MS medium (Murashige and Skoog (1962) Physiol. Plant. 15,473-497) supplemented with B5 vitamins in Phytatrays or sundae cups with a 16-hour photoperiod at 24° C. Leaf sections were aseptically removed and placed into new plant regeneration medium containing various concentrations of glyphosate, spectinomycin and phospinothricin. The leaf material was collected at 1-week and 4-week time points and prepared for electron microscopic observation of plastid ultrastructure. As a control, wild-type leaf sections were exposed to the initially plastid non-lethal antibiotic, spectinomycin, under identical conditions, or to medium without any drug.
Cultured tobacco leaf pieces 1 mm^2 were fixed in 4% glutaraldehyde in 0.1 M sodium cacodylate buffer, pH 7.2 for 3 hours, with the first 30 minutes under vacuum. The tissue was further fixed in 1% osmium tetroxide in the above buffer for 90 minutes and stained with 1% aqueous uranyl acetate for 2 hours. Ethanol and propylene oxide were used to dehydrate the tissue prior to infiltration with a 1:1 mixture of Spurr's:EMbed 812 resin. The resin was polymerized at 60° C. for 48 hours. The resulting blocks were sectioned on a Leica Ultracut E microtome. Sections 80 nm thick were picked up on formvar/carbon-coated copper slot grids. The grids were stained with uranyl acetate and lead citrate in a LKB Ultrastainer and examined with a JEOL 1200 transmission electron microscope. All reagents were obtained from Electron Microscopy Sciences, Fort Washington, Pa.
Tobacco leaf tissue was also analyzed on medium containing lower concentrations of glyphosate. […] Cultured tissue was prepared for electron microscopy as described above.
To test the general effect of herbicides on plastid morphology, we examined tobacco leaf cultures that were grown in the presence of phosphinothricin (PPT, active ingredient in BASTA herbicide) at 4 mg/L, the concentration normally used for nuclear transformation. Leaves from healthy, tobacco plants at the same developmental stage were cut into about 5 mm×5 mm sections and placed on MS/B5 medium with 3% sucrose, 1 mg/L BAP, 0.1 mg/L NAA and 4 mg/L phosphinothricin for the 3, 7 or 12 days. The leaf sections were then fixed and processed for TEM analysis.

[2] = test system: tobacco leaf plant cultures; test: Visual appearance of tobacco leaf cultures on drug-containing medium; type: cell-based, Nicotiana tabacum cv Petit Havana
Experimental: as §1

[3] = test system: bombarded tobacco leaf explants; test: Direct selection of bombarded tobacco leaf explants on lethal level of PPT; type: cell-based, Nicotiana tabacum cv. Havana; conditions: 4 mg/L PPT, leaves bombarded with pMON53159
Experimental: Dark green, round leaves are cut, preferably from the middle of the shoots, from 3-6 week old Nicotiana tabacum cv. Havana that have been maintained in vitro on hormone-free MS medium (Murashige and Skoog, (1962) Physiol Plant. 15, 473-497) supplemented with B5 vitamins in Phytatrays or sundae cups with a 16-hour photoperiod at 24° C. Each cut leaf is then placed adaxial side up on sterile filter paper over tobacco shoot regeneration medium (TSO medium: MS salts, 1 mg/L N^6-benzyladenine, 0.1 mg/L 1-naphthaleneacetic acid, 1 mg/L thiamine, 100 mg/L inositol, 7 g/L agar pH 5.8 and 30 g/L sucrose). Leaves are preferably placed in the center of the plate with as much contact with the medium as possible. The plates are preferably prepared immediately prior to use but may be prepared up to a day before transformation by particle bombardment by wrapping in plastic bags and storing at 24° C. overnight.
Plates containing the leaf samples are placed on the second shelf from the bottom of the vacuum chamber and bombarded using the 1100 p.s.i. rupture disk. After bombardment, petri plates containing the leaf samples are wrapped in plastic bags and incubated at 24° C. for 48 hours as a delay period prior to phase one culturing.
Direct selection of phosphinothricin (PPT) resistant transformants on lethal levels of PPT using plasmid pMON53159 carrying the bar gene alone were unsuccessful. […]

SMILES	plastoglobuli diameter ([1]; 1 μM glyphosate, 7 days)	plastid ultrastructure (TEM) ([1]; 1 μM glyphosate, 7 days, TSO medium)	plastid ultrastructure (TEM) ([1]; 5 μM glyphosate, 7 days)	plastid ultrastructure (TEM) ([1]; 10 μM glyphosate, 7 days)	plastid ultrastructure (TEM) ([1]; 20 μM glyphosate, 3 days)	plastid ultrastructure (TEM) ([1]; 20 μM glyphosate, 7 days)	plastid ultrastructure (TEM) ([1]; 50 μM glyphosate, four weeks)	plastid ultrastructure (TEM) ([1]; 50 μM glyphosate, one week)	plastid ultrastructure (TEM) ([1]; 200 μM glyphosate, four weeks)	plastid ultrastructure (TEM) ([1]; 200 μM glyphosate, one week)	visual effect on plant cultures ([2]; after 1 week)	visual effect on plant cultures ([2]; after 4 weeks, lower concentrations of glyphosate)	plastid ultrastructure (TEM) ([1]; 4 mg/L phosphinothricin, 3 days)	plastid ultrastructure (TEM) ([1]; 4 mg/L phosphinothricin, 7 days)	plastid ultrastructure (TEM) ([1]; 4 mg/L phosphinothricin, 12 days)	appearance of explants under direct selection [3]	plastid ultrastructure (TEM) ([1]; 500 mg/L spectinomycin, four weeks)	plastid ultrastructure (TEM) ([1]; 500 mg/L spectinomycin, one week)	visual effect on plant cultures ([2]; after 4 weeks, spectinomycin)
O=C(O)CNCP(=O)(O)O [glyphosate]	approximately 0.25 μm	typical morphology of metabolically active photosynthetic plastids	normal in appearance	normal in appearance	chloroplasts are beginning to show morphological damage	thylakoid membrane system is severely damaged	plastids appear to have recovered or adapted to some degree	reticulate network of thylakoid membranes has disappeared	completely devoid of internal structure	damage to plastid structure is occurring rapidly	minimal effect visually on plant cultures	begin to form shoot primordia indicating recovery of the tissue							
CP(=O)(O)CC[C@H](N)C(=O)O [PPT, phosphinothricin]													Thylakoid membranes are completely absent	even more dramatic, with oil bodies accumulated in the organelles	even more dramatic, with oil bodies accumulated in the organelles	bleached and demonstrated little or no cell expansion			
CN[C@@H]1[C@H](O)[C@H](NC)[C@H]2O[C@@]3(O)C(=O)C[C@@H](C)O[C@H]3O[C@@H]2[C@H]1O [spectinomycin]											minimal effect on plant cultures visually						plastids internal membranes have broken down almost completely and become vacuolated	plastids look relatively normal	tissue is completely bleached
